Assay [1] relates to NMDA-induced convulsion and mortality in mice. Briefly: NMDA-induced convulsion test (200 mg/kg NMDA). In kind it is in vivo. As to the method:
Male CD-1 mice (Charles River Laboratories, Wilmington, Mass.) weighing 20-25 g were used for the NMDA-induced convulsion test. Mice were injected intraperitoneally with the test compound dissolved in DMSO or with vehicle. NMDA (200 mg/kg, i.p.) was injected either 2 minutes after intravenous injection of test compound or 20 minutes after intraperitoneal injection of test compound.

The target of assay [2] is T1, recombinant NMDA receptors (NR1100 and NR2A subunits) (Rattus norvegicus, UniProt P35439+Q00959).
T1 construct: expressed in transfected cells; host or cells: Xenopus laevis oocytes injected with in vitro transcribed mRNA
T1 sequence (Q00959 23-1464, other chains not shown): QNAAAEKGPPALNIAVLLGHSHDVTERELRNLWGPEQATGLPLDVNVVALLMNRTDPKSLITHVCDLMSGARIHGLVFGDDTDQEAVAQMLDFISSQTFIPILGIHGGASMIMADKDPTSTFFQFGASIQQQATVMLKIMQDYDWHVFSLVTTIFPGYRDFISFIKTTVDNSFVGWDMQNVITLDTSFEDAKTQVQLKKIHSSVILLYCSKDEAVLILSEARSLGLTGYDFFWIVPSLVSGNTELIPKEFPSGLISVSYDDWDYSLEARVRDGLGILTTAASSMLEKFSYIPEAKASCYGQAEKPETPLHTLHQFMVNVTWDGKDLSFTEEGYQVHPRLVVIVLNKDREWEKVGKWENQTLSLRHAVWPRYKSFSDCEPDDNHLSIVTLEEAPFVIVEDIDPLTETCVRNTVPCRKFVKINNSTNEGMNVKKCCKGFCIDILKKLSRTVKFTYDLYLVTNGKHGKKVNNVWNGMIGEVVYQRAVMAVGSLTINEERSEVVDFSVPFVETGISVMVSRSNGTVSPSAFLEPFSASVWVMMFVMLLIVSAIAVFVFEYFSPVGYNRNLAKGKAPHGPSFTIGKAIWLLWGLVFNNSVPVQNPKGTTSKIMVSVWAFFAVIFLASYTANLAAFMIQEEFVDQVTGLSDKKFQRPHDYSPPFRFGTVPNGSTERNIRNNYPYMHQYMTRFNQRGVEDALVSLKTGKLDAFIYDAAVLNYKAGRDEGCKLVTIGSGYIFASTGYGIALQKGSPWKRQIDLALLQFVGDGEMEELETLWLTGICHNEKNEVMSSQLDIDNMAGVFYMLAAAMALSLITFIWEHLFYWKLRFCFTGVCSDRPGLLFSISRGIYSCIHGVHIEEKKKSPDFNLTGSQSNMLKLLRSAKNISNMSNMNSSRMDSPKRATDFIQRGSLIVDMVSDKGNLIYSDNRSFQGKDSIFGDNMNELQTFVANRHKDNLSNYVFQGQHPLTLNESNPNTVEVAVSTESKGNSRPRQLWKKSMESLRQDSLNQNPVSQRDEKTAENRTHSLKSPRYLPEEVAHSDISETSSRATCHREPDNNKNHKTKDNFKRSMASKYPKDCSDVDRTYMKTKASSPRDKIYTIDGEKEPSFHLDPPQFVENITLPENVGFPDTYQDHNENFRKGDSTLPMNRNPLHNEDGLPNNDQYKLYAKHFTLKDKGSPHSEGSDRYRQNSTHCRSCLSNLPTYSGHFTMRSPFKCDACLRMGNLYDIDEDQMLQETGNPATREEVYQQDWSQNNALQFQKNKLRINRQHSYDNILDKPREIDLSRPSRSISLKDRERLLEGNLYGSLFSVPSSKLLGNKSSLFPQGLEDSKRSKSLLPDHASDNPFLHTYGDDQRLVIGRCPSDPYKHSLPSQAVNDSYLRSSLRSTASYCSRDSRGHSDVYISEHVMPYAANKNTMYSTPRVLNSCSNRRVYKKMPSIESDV
Briefly: Two electrode voltage-clamp of Xenopus oocytes expressing recombinant NMDA receptors. In kind it is cell-based. As for the experimental part: RNA preparation. mRNA were prepared through in vitro transcription of NR1100 and NR2A cDNAs using the mMessage mMachine kit (Ambion, Tex.). NR1100 and NR2A clones were kindly provided by Dr. Zukin and Dr. Nakanishie.
Xenopus expression system. Female, oocyte positive Xenopus laevis frogs were purchased from Nasco, Inc. (WI). The frogs were kept on a 12/12 light-dark cycle and maintained on a diet of chopped calf liver every 3 days. Prior to surgery, frogs were anesthetized in a 0.15% Tricaine solution (Sigma, Mo.) for 30-45 minutes. Ovarian sections containing the follicular oocytes were removed through a lateral abdominal incision and were immediately placed in calcium-free ND96 solution (in mM):96 NaCl; 1 MgCl2; 2 KCl; 5 Hepes; 2.5 pyruvate (pH adjusted to 7.4 with NaOH). Following a 2 hr. incubation in 0.2% collagenase type II (Sigma, Mo.) at room temperature, individual defolliculated oocytes were transferred into 60×15 mm glass petri dishes containing ND96 solution (in mM): 96 NaCl; 1 MgCl2; 2 KCl; 1.8 CaCl2; 5 Hepes; 2.5 pyruvate (pH adjusted to 7.4 with NaOH). The isolated oocytes were maintained in an incubator at 18° C. On the following date, batches of 20-40 selected oocytes (Dumont stage V and VI) were injected with 50 nl of prepared RNA solution (0.5 ng of NR1 and 12 ng of NR2A mRNAs per oocyte) using an electronic microinjector (Drummond, Pa.). The injected oocytes were used for electrophysiological experiments following 4-10 day incubation at 18° C.
Electrical recording and drug application. The ion current recordings were obtained in two electrodes voltage-clamp mode using an Axoclamp-2A amplifier (Axon Instruments, Inc., CA). The microelectrodes were fabricated with a programmed puller (Sutter Instrument Co., CA) from glass capillaries (Dagan, Minn.) and filled with 3M KCl solution. The resistance of filled microelectrodes was in the range of 2.5-3.5 M.OMEGA.. The oocytes were clamped at a holding potential of -70 mV. The membrane current was filtered at 500 Hz and sampled at 100 Hz frequency. The drugs were applied using a gravity driven external perfusion system. The data acquisition and external perfusion control were done using SuperScopeII software package (GW Instruments, MA). All experiments were performed at room temperature of 22-24° C.
The degree of modulation of the amino acid response by steroids, the percent change, was defined at (I'/I-1)×100%, where I and I' are respectively the agonist-induced currents in the absence and presence of steroid. Throughout, results are expressed as mean±SEM; statistical comparison of groups was carried out using Student's t test.
(In two-electrode clamp one electrode senses voltage and the other passes current.)

Assay [3] deals with NMDA receptor. As to the kind of experiment: Electrophysiology, NMDA response in rat hippocampal neurons. In kind it is cell-based. The settings on record: FIG. 4; average of 6 experiments. As to the method: Experiments were carried out in 35-mm tissue culture dishes on the stage of an inverted phase contrast microscope. Whole cell currents were recorded by the whole cell variant of the patch clamp technique (Hamill, O. P., et al., Pfagers Arch. 891:85-100 (1981)). Patch electrodes had tip openings of about […] and resistances of 3-8 M.OMEGA. using an intracellular solution comprised of the following (in mM): 140 CsCl, 11 EGTA, and 10 HEPES (pH adjusted to 7.2 with CsOH). In experiments in which a high concentration of glycine was used, the intracellular solution was replaced with a low chloride (10 mM) pipette solution. This solution contained the following (in mM): 140 potassium gluconate, 10 KCl, 8 sodium gluconate, 11 EGTA, and 10 HEPES (pH adjusted to 7.2 with KOH). […]
The degree of modulation of the amino acid response by steroid, the percentage change, is expressed as [(I'/I)-1]×100%, where I is the average of control responses obtained from the same cell before application and after washout of steroid and I' is the agonist-induced current in the presence of steroid. Throughout, results are expressed as mean±S.E.; statistical comparison of groups was carried out using Student's t test.
The electrophysiology of additional pregnenolone derivatives were analyzed as described in Example 1. […]

Setting [4] is: mice, i.p., high dose, time limit 30 min.

Structures can show the parent of a compound that is named as a salt.

`CC(=O)[C@H]1CC[C@H]2[C@@H]3CC[C@@H]4C[C@H](OS(=O)(=O)O)CC[C@]4(C)[C@H]3CC[C@]12C` [5β3αS, 3α-hydroxy-5β-pregnan-20-one sulfate]: the “seizures and mortality induced by NMDA” value in assay [1] (mice, i.v. administration, FIG. 8) was “effective in blocking seizures and mortality”. The “latency to onset of seizures” value in assay [1] (printed:) is “increases the latency to onset of seizures”. Also, the “mortality” value in assay [1] (printed: rats following i.v. injection of 200 mg/kg NMDA) is “decreases mortality”. Besides, in assay [2], the “effect on NMDA responses of NR1100/NR2A injected oocytes” value is “had an inhibitory effect”.
With `CC(=O)[C@H]1CC[C@H]2[C@@H]3CC[C@@H]4C[C@H](OC(=O)CCC(=O)O)CC[C@]4(C)[C@H]3CC[C@]12C` [5β3αHS, 3α-hydroxy-5β-pregnan-20-one hemisuccinate], in assay [1] (mice, i.p., FIG. 7), the “mortality induced by 200 mg/kg of NMDA” value is listed as “dose-dependently inhibited mortality” and the “tonic seizures induced by 200 mg/kg of NMDA” value is reported as “dose-dependently inhibited tonic seizures”. Also, in assay [1] (setting [4]), the “mortality induced by NMDA at the high dose” value is “completely block the mortality” and the “tonic seizures induced by NMDA at the high dose” value was “completely block the seizures”. The “% inhibition of NMDA response in rat hippocampal cells” value in assay [3] is “approximately 20%”.
Regarding `CC(=O)C1CCC2C3CC=C4CC(OS(=O)(=O)O)CCC4(C)C3CCC12C` (stereo not shown) [PS, pregnenolone sulfate], the activation at 100 µM in assay [2] (100 μM steroid, read-out: potentiation of a near maximal NMDA response (200 μM)) came out at 292 ± 34%.
